≈ marks a conversion by molar mass, not a printed value. Peptide text beside a SMILES is read from it.
Key:
standard ATCC E. coli = settings: cited from earlier work
standard ATCC S. aureus = settings: cited from earlier work
lymphoma cell line U937 = tested on: lymphoma cell line U937; parameters: method as in PMID 21403917; settings: read-out: IC50 against lymphoma cell line U937; cited from earlier work
[1] = cited from earlier work
human erythrocytes [2] = settings: cited from earlier work
Description: The cell-penetrating ability is inherent to some amphipathic peptides with a high percentage of cationic residues. More than five arginines are required to direct membrane penetration through the eukaryotic membrane. This condition is fulfilled by guananin 2, the PenArg analog of penetratin, and T2R1, but not by T2. Penetratin, with the sequence […], is a well-known cell-penetrating peptide, which is furthermore an antimicrobial and anticancer peptide. That peptide is, to some degree, toxic to HeLa and Jurkat cancer cell lines. The toxicity to HeLa ...

E. coli clin. isolate = type: cell-based, Escherichia coli; settings: clin. isolate
Description: (§1) The American Type Culture Collection (ATCC, Rockville, MD, USA) strains and Escherichia coli MG1655 were used as standard bacterial strains. Gram-negative ATCC strains consisted of Escherichia coli (ATCC 25922), Pseudomonas aeruginosa (ATCC 27853), Acinetobacter baumannii (ATCC 19606), and Klebsiella pneumoniae (ATCC 13883). The only Gram-positive standard strain chosen for testing was Staphylococcus aureus (ATCC 29213). Clinical isolates with confirmed multidrug-resistance phenotype were obtained from different wards of the University Hospital Center, Split, Croatia. We described their origin, antibiograms, and resistance phenotype previously. In the same paper, we described the procedure for antimicrobial susceptibility testing on planktonic cells, using the microdilution method in 96-well microtiter plates.
(§2) Briefly, cells were grown on agar plates and a single colony was sampled to generate a liquid culture (LC) grown overnight at 37 °C. The culture was sampled, resuspended in fresh medium, and allowed to grow at 37 °C, until reaching the mid-exponential phase. Lysogeny broth (LB) was used in the case of the E. coli MG1655 cells. Mueller Hinton (MH) medium was used for all other bacterial strains. Serial 2-fold dilutions of the peptide (64 μM to 0.0625 μM) were prepared from peptide stock solution in PBS, and added to a final load of 5 × 10^5 CFU/mL in 100 μL total volume of medium per well in a 96-well plate (Brand 781660). Bacterial cultures were incubated with peptides for 18 h to 24 h at 37 °C. The minimum inhibitory concentration (MIC) was defined as the lowest concentration of the peptide, at which no visible bacterial growth was observed. The MIC for each of the tested peptides was determined in at least three individual assays under the same laboratory conditions. […] At the end of the incubation period for MIC or MBC, the determination of the OD600 was analyzed.

P. aerug. clin. isolate = type: cell-based, Pseudomonas aeruginosa
Description: as §1, §2

K. pneum. clin. isolate = type: cell-based, Klebsiella pneumoniae
Description: as §1, §2

[3] = tested on: Acinetobacter baumannii (ATCC 19606); type: cell-based; settings: ATCC 19606
Description: as §1, §2

[4] = tested on: Escherichia coli (ATCC 25922); type: cell-based; settings: ATCC 25922
Description: as §1, §2

Escherichia coli MG1655 = type: cell-based; settings: MG1655
Description: as §1, §2

[5] = tested on: Klebsiella pneumoniae (ATCC 13883); type: cell-based; settings: ATCC 13883
Description: as §1, §2

[6] = tested on: Pseudomonas aeruginosa (ATCC 27853); type: cell-based; settings: ATCC 27853
Description: as §1, §2

[7] = tested on: Staphylococcus aureus (ATCC 29213); type: cell-based
Description: as §1, §2

A. baum. clin. isolate = type: cell-based, Acinetobacter baumannii
Description: as §1, §2

S. aureus clin. isolate = type: cell-based, Staphylococcus aureus; settings: clin. isolate
Description: as §1, §2

human erythrocytes [8] = experiment: Hemolysis of human erythrocytes; type: cell-based; settings: 0.5% RBC in PBS, 1 h, 37 °C, absorbance 450 nm, triplicate; for HC10: concentration causing 10% hemolysis, 0.2% Triton = 100%; for HC20: concentration causing 20% hemolysis
Description: Fresh blood was obtained from a healthy donor. Blood was stored in a tube containing EDTA at 4 °C and used within 24 h. Before use, 1 mL of blood was centrifuged (400× g, 10 min), and the supernatant was discarded. Moreover, 500 μL cold PBS with EDTA (1 mM) was added, mixed and centrifuged. The supernatant was discarded. Furthermore, 500 μL of cold PBS with EDTA (1 mM) was added, from which a dilution of 1% blood was made. Peptides were prepared in PBS at a 2 × concentration in 100 µL. […] The suspension was incubated at 37 °C for 1 h and centrifuged at 10,000× g for 5 min. […] After centrifugation, the supernatant was added to a 96-well microtiter plate (150–180 μL), and the absorbance was measured at 450 nm, using EnSight Multimode Plate Reader (PerkinElmer, Inc.). Each measurement was done in triplicate. […] We opted to also include the extrapolated HC50 in our results, to permit comparisons with older toxicity results. However, the HC20 measurements were used for ranking the peptides according to their selectivity and overall performance (Figure 1 and Figure 2 and Table 2).

[9] = tested on: human primary dermal fibroblasts; type: cell-based; settings: 24 h
Description: (§3) Prostate cancer cells were donated by the University of Split, School of Medicine. Cells were cultured in RMPI-1640 medium, supplemented with 10% FBS, 1% Penicillin-Streptomycin, and 1% L-Glutamine. Human dermal fibroblasts were purchased from Biopredic (France) and cultured in DMEM medium, supplemented with 10% FBS and 1% Penicillin-Streptomycin. All cell lines were maintained in a humidified incubator with 5% CO2 at 37 °C. Cells were detached using the trypsin-EDTA solution and sub-cultured (7000 cells/well) in a 96-well plate overnight. Peptide stock solutions were prepared in PBS, and cancer cells were treated with 2-fold serial dilutions for 24 h at 37 °C, with 5% CO2. The toxicity of 6 selected peptides was assessed by a standard MTT assay. Treated cells were incubated with MTT working solution (0.5 mg/mL Thiazolyl Blue Tetrazolium Bromide) for 4 h at 37 °C with 5% CO2. Precipitated formazan was dissolved in 200 µL DMSO and absorbance was measured at 595 nm with EnSight Multimode Plate Reader (PerkinElmer, Inc.)

[10] = tested on: PC-3 prostate cancer cell line; type: cell-based, human; settings: 24 h
Description: as §3

[11] = tested on: Gram-negative and Gram-positive bacteria; settings: cited from earlier work
Description: (§4) In the ZYK1 example, the parent peptide already has selective antimicrobial and antitumor activity. […] It follows that the TI for the paren ...

[12] = tested on: HeLa (human cervical carcinoma cells) and HL60 (human promyelocytic leukemia cells); settings: two selected cancer cell lines; read-out: IC50 against HeLa and HL60; cited from earlier work
Description: as §4

[13] = tested on: human neonate chondrocytes; settings: cited from earlier work
Description: as §4

[14] = cited from earlier work; remark: listed apart in the source
Description: The MAPA analog of the MAP cell-penetrating peptide is five times less hemolytic and has at least two times stronger antibacterial activity than MAP [73] (Table 2). Accordingly, by introduced substitutions, we increased the selectivity index by at least one order of magnitude, and converted a strongly hemolytic, predominantly cell-penetrating peptide with no antibacterial selectivity (SI = 1, [73]), into a potent peptide antibiotic. MAP is an important molecule for engineering new anticancer agents, but as far as we can tell, MAPA is the first known selective anticancer MAP an ...

Row | Molecule | MIC (E. coli clin. isolate) (E. coli clin. isolate) | MIC (P. aerug. clin. isolate) (P. aerug. clin. isolate) | MIC (K. pneum. clin. isolate) (K. pneum. clin. isolate) | MIC (A. baum. ATCC 19606) [3] | MIC (E. coli ATCC 25922) [4] | MIC (E. coli MG1655) (Escherichia coli MG1655) | MIC (K. pneum. ATCC 13883) [5] | MIC (P. aerug. ATCC 27853) [6] | MIC (S. aureus ATCC 29213) [7] | MIC (A. baum. clin. isolate) (A. baum. clin. isolate) | MIC (S. aureus clin. isolate) (S. aureus clin. isolate) | HC10 (human erythrocytes [8]) | HC20 (human erythrocytes [8]) | IC50 [9] | (TI/ IC50C) vs. MP1 [10] | IC50 [10] | TI (HC20/IC20C) [10] | TI (IC50F/IC50C) [10] | TI/ IC50C [10] | other results
1 | GIGKFLKKAKKFGKAFVKILKK [pexiganan] | – | – | – | – | – | – | – | – | – | – | – | – | – | – | – | – | – | – | – | MIC, standard ATCC E. coli (standard ATCC E. coli): 6.5 µM; MIC, standard ATCC S. aureus (standard ATCC S. aureus): 6.5 µM; IC50 (lymphoma cell line U937): 4 µM; HC50 hemolytic activity [1]: 45 µM
2 | RQYMRQIEQALRYGYRISRR [guananin 2, arginine-rich designed peptide from the literature] | – | – | – | – | – | – | – | – | – | – | – | – | – | – | – | – | – | – | – | selectivity index (human erythrocytes [2]): about 24
3 | CC[C@H](C)[C@H](NC(=O)[C@@H](NC(=O)[C@H](CCCNC(=N)N)NC(=O)CNC(=O)[C@@H](NC(=O)[C@H](CCCCN)NC(=O)[C@H](CCCCN)NC(=O)CNC(=O)[C@@H](NC(=O)[C@H](CCCCN)NC(=O)[C@H](CCCCN)NC(=O)[C@@H](NC(=O)[C@@H](NC(=O)[C@H](CCCCN)NC(=O)[C@H](CCCCN)NC(=O)[C@@H](NC(=O)[C@@H](NC(=O)[C@H](CCC(=O)O)NC(=O)[C@H](CCCNC(=N)N)NC(=O)CNC(=O)[C@@H](NC(=O)CN)[C@@H](C)CC)[C@@H](C)CC)[C@@H](C)CC)[C@@H](C)CC)[C@@H](C)CC)[C@@H](C)CC)[C@@H](C)CC)[C@@H](C)CC)C(N)=O [ZYK1] (H-GIGREIIKKIIKKIGKKIGRII-NH2) | 2 µM (≈ 4.95 µg/mL) | 16 µM (≈ 39.6 µg/mL) | 4 µM (≈ 9.9 µg/mL) | 2 µM (≈ 4.95 µg/mL) | 1 µM (≈ 2.47 µg/mL) | 4 µM (≈ 9.9 µg/mL) | 2 µM (≈ 4.95 µg/mL) | 16 µM (≈ 39.6 µg/mL) | 1 µM (≈ 2.47 µg/mL) | 2 µM (≈ 4.95 µg/mL) | 2 µM (≈ 4.95 µg/mL) | 3 µM | 8 µM | 10 µM | 107 | 1.5 µM | 8.6 | 6.7 | 4.47 | PEa(20) = SI/MIC(aureus) ([7]; ATCC 29213, 18 h): 8 µM⁻¹; HC50 (human erythrocytes [8]; concentration causing 50% hemolysis): 29 µM
4 | GIIKKIIKKIIKKI-NH2 [already known artificial AMP template of ZYK1] | – | – | – | – | – | – | – | – | – | – | – | – | – | – | – | – | – | – | – | MIC values [11]: about 10 μM; IC50 [12]: 15 to 25 µM; IC50 [13]: > 40 µM
5 | CC[C@H](C)[C@H](NC(=O)CN)C(=O)N[C@@H](CCCCN)C(=O)N[C@@H](CCCCN)C(=O)N[C@@H](Cc1c[nH]c2ccccc12)C(=O)N[C@H](C(=O)N[C@@H](CCCCN)C(=O)NCC(=O)N[C@H](C(=O)N[C@@H](C)C(=O)N[C@@H](CCCCN)C(=O)NCC(=O)N[C@H](C(=O)N[C@@H](C)C(=O)N[C@@H](CCCCN)C(=O)N[C@@H](CC(=O)O)C(=O)N[C@@H](CC(C)C)C(=O)N[C@@H](C)C(=O)N[C@@H](CCCCN)C(=O)N[C@@H](CCCCN)C(=O)N[C@H](C(=O)N[C@@H](CC(C)C)C(N)=O)[C@@H](C)CC)C(C)C)C(C)C)C(C)C [FLEX] (H-GIKKWVKGVAKGVAKDLAKKIL-NH2) | 0.5 µM (≈ 1.17 µg/mL) | 2 to 4 µM | 2 to 4 µM | 0.5 to 1 µM | 0.25 µM (≈ 0.587 µg/mL) | 16 µM (≈ 37.6 µg/mL) | 0.5 to 1 µM | 2 µM (≈ 4.7 µg/mL) | 0.25 µM (≈ 0.587 µg/mL) | 1 µM (≈ 2.35 µg/mL) | 4 µM (≈ 9.4 µg/mL) | 6 µM | 25 µM | 30 µM | 18.5 | 6.25 µM | 25 | 4.8 | 0.77 | –
6 | KLALKLALKALKAALKLA [MAP, cell-penetrating peptide, template of mapegin] | – | – | – | – | – | – | – | – | – | – | – | – | – | – | – | – | – | – | – | antibacterial selectivity SI [14]: 1
